Measurements as given in patent US20040116451A1, “Method of treatment” (Pfizer Inc., priority 2002, published 2004).

Tested on: men with lower urinary tract symptoms
Assay: 12-Week double-blind study in men with lower urinary tract symptoms (IPSS and bladder diary)
Type: in vivo
Conditions: for improvement in IPSS irritative domain: subjects with baseline IPSS irritative domain score ≧β; for improvement in IPSS irritative domain / improvement in irritative LUTS (urgency, daytime micturition frequency, nocturia; bladder diary): controlled release formulation, 12 weeks; for improvement in irritative LUTS (urgency, daytime micturition frequency, nocturia; bladder diary): subjects with irritative LUTS at baseline, compared with placebo
Protocol: A 12-Week Study in men with lower urinary tract symptoms was undertaken in which the IPSS (International Prostate Symptom Score) was recorded at baseline during, and at the end of, double-blind treatment. The IPSS is composed of seven questions, each with potential responses of 0-5 on a Likert scale. These questions are grouped into two validated domains: the irritative domain (urgency, frequency and nocturia) and the obstructive domain (incomplete emptying, intermittency, weak stream and straining to begin). […] The average daily incidence of urgency, daytime micturition frequency and nocturia (the irritative symptoms) for each subject were derived from this diary. In this study, there were […] treatment groups: 6 mg fixed dose of 4-amino-6,7-dimethoxy-2-(5-methanesulfonamido-1,2,3,4-tetrahydroisoquinol-2-yl)-5-(2-pyridyl)quinazoline, 6 mg escalated to 12 mg at Week 4 of the compound, and placebo. Controlled release formulations according to International Application Publication No. WO 03/032956 were used in each case.

[1] = 12 mg dose escalation group (6 mg escalated to 12 mg at Week 4)

COc1cc2nc(N3CCc4c(cccc4NS(C)(=O)=O)C3)nc(N)c2c(-c2ccccn2)c1OC [4-amino-6,7-dimethoxy-2-(5-methanesulfonamido-1,2,3,4-tetrahydroisoquinol-2-yl)-5-(2-pyridyl)quinazoline]
attenuation of irritative LUTS (overall study result, FIGS. 1 to 4) (12-week study in men with LUTS, controlled release formulations): clinically significant attenuation of irritative LUTS
improvement in IPSS irritative domain (6 mg fixed dose group): improvement in this domain of the IPSS was similarly confirmed
improvement in IPSS irritative domain [1]: improvement in this domain of the IPSS was similarly confirmed
improvement in irritative LUTS (urgency, daytime micturition frequency, nocturia; bladder diary) (6 mg fixed dose group): improvement in these symptoms was confirmed
improvement in irritative LUTS (urgency, daytime micturition frequency, nocturia; bladder diary) [1]: improvement in these symptoms was confirmed
